For test [1], the system named is SETVI. The test can be described thus: Herbicidal action post-emergence (PO). It is filed as in vivo, Setaria viridis. Particulars: dosage 320 g/ha.
Test [2] concerns POLCO. Kind of test: Herbicidal action pre-emergence (PE). The class given is in vivo, Polygonum convolvulus. Particulars: dosage 320 g/ha.
In test [3] the test system is SETVI. Kind of test: Herbicidal action pre-emergence (PE). It is filed as in vivo, Setaria viridis. To be noted: dosage 320 g/ha.
Test [4] relates to AMARE. The test can be described thus: Herbicidal action post-emergence (PO). Particulars: dosage 320 g/ha. It is filed as in vivo, Amaranthus retroflexus.
Test [5] deals with AMARE. The test can be described thus: Herbicidal action pre-emergence (PE). The class given is in vivo, Amaranthus retroflexus. Particulars: dosage 320 g/ha.
For test [6], the system named is ABUTH. The test can be described thus: Herbicidal action post-emergence (PO). The class given is in vivo, Abutilon theophrasti. To be noted: dosage 320 g/ha.
The subject of test [7] is ECHCG. Kind of test: Herbicidal action pre-emergence (PE). The class given is in vivo, Echinochloa crus-galli. To be noted: dosage 320 g/ha.
Test [8] has as its system VIOTR. The test can be described thus: Herbicidal action pre-emergence (PE). The class given is in vivo, Viola tricolor. Particulars: dosage 320 g/ha.
For test [9], the system named is MATIN. Kind of test: Herbicidal action pre-emergence (PE). To be noted: dosage 320 g/ha. It is filed as in vivo, Matricaria inodora.
The test system of test [10] is PHBPU. Kind of test: Herbicidal action post-emergence (PO). Particulars: dosage 320 g/ha. It is filed as in vivo, Pharbitis purpurea.
The subject of test [11] is VIOTR. Kind of test: Herbicidal action post-emergence (PO). The class given is in vivo, Viola tricolor. Particulars: dosage 320 g/ha.
The subject of test [12] is ALOMY. The test can be described thus: Herbicidal action pre-emergence (PE). To be noted: dosage 320 g/ha. It is filed as in vivo, Alopecurus myosuroides.
Test [13] has as its system Puccinia recondita. Kind of test: In vivo preventive test on Puccinia recondita (brown rust on wheat). Particulars: 100 ppm of active ingredient; wheat plants; evaluated 11 days after the inoculation. Here is the method:
4) Example: In Vivo Preventive Test on Puccinia recondita (Brown Rust on Wheat) [table] The active ingredients were made soluble and homogenized in a mixture of Dimethyl sulfoxide/Acetone//Tween® 80 and then diluted in water to the desired concentration. The young plants of wheat were treated by spraying the active ingredient prepared as described above. Control plants were treated only with an aqueous solution of Acetone/Dimethyl sulfoxide/Tween® 80. After 24 hours, the plants were contaminated by spraying the leaves with an aqueous suspension of Puccinia recondita spores.

Test [14] deals with Pyrenophora teres. Kind of test: In vivo preventive test on Pyrenophora teres (net blotch on barley). Particulars: 100 ppm of active ingredient; barley plants; evaluated 14 days after the inoculation. As to the method:
5) Example: In Vivo Preventive Test on Pyrenophora teres (Net Blotch on Barley) [table] The active ingredients were made soluble and homogenized in a mixture of Dimethyl sulfoxide/Acetone//Tween® 80 and then diluted in water to the desired concentration. The young plants of barley were treated by spraying the active ingredient prepared as described above. Control plants were treated only with an aqueous solution of Acetone/Dimethyl sulfoxide/Tween® 80. After 24 hours, the plants were contaminated by spraying the leaves with an aqueous suspension of Pyrenophora teres spores.

Regarding `Nc1nsc2c(=O)n(CC3CCCCC3)cnc12` [Example I-17], the SETVI in [1] and in test [3] was 100 each time. This compound also returned a POLCO in test [2] of 100. Moreover, the AMARE in test [4] and in [5] was 100 throughout. Further, the ABUTH in [6] was found to be 90. Moreover, in test [7], the ECHCG is reported as 100. The VIOTR in [8] and in test [11] was 100 throughout. Moreover, the MATIN in test [9] amounted to 100. For the same compound, the PHBPU in test [10] was determined as 100.

Regarding `O=C(Nc1nsc2c(=O)n(CC3CCCCC3)cnc12)c1cccnc1` [Example I-06], the AMARE in test [4] and in test [5] was 100 each time. Besides, the ABUTH in test [6] is listed as 100. For the same compound, the VIOTR in test [8] and in [11] was 100 each time. In [12], this compound returned an ALOMY of 90.

Turning to `O=C(Nc1nsc2c(=O)n(CC3CCCCC3)cnc12)C(F)(F)C(F)(F)Cl` [Example I-68], the SETVI in [1] and in test [3] was 100 each time. In [2], this compound yielded a POLCO of 100. Further, the AMARE in test [4] and in [5] was 100 each time. In addition, in test [6], the ABUTH worked out at 100. In addition, in test [7], the ECHCG turned out to be 100. Further, the VIOTR in test [8] and in test [11] was 100 throughout. Also, the MATIN in [9] amounted to 100. For the same compound, the PHBPU in test [10] amounted to 100.

For the compound `O=C(Nc1nsc2c(=O)n(CC3CCCCC3)cnc12)c1cc(Cl)cc(Cl)c1` [Example I-20], the AMARE in test [5] was 100. In test [8], this compound yielded a VIOTR of 100. Also, the ALOMY in test [12] is on record as 80.

On to `COC(=O)C(=O)Nc1nsc2c(=O)n(CC3CCCCC3)cnc12` [Example I-70], for which the SETVI in test [1] came out at 100. The AMARE in test [4] and in test [5] was 100 throughout. In test [6], this compound had an ABUTH of 80. The VIOTR in test [8] and in test [11] was 100 in each case. This compound also yielded an ALOMY in [12] of 100. Besides, in [10], the PHBPU is 100.

For `O=C(Nc1nsc2c(=O)n(Cc3ccc(F)cc3F)cnc12)C(F)(F)F` [Example I-85], the SETVI in [1] and in test [3] was 100 in each case. This compound gave a POLCO in test [2] of 100. The AMARE in [4] and in test [5] was 100 in each case. This compound returned an ABUTH in test [6] of 80. The compound also yielded an ECHCG in test [7] of 100. Also, the VIOTR in [8] and in test [11] was 100 in each case. This compound had an MATIN in test [9] of 100. In test [10], this compound registered a PHBPU of 100.

Turning to `O=C(Nc1nsc2c(=O)n(CC3CCCCC3)cnc12)C(F)(F)F` [Example I-53], the SETVI in [1] and in test [3] was 100 in each case. This compound returned a POLCO in test [2] of 100. Moreover, the AMARE in [4] and in test [5] was 100 each time. This compound registered an ABUTH in test [6] of 100. The same compound had an ECHCG in test [7] of 100. Also, the VIOTR in [8] and in [11] was 100 in each case. The MATIN in test [9] came out at 100. Besides, the PHBPU in test [10] was determined as 100.

As for `CC(=O)Nc1nsc2c(=O)n(Cc3ccc(F)cc3F)cnc12` [Example I-79], the AMARE in test [4] and in test [5] was 100 throughout. In addition, in [6], the ABUTH worked out at 90. Also, the VIOTR in test [8] and in [11] was 100 throughout. In addition, the ALOMY in test [12] amounted to 100.

Consider `COCC(=O)Nc1nsc2c(=O)n(CC3CCCCC3)cnc12` [Example I-69], for which the SETVI in test [1] and in test [3] was 100 in each case. This compound returned a POLCO in test [2] of 100. Further, the AMARE in [4] and in test [5] was 100 throughout. Also, the ABUTH in [6] was found to be 90. Moreover, the ECHCG in [7] is given as 100. For the same compound, the VIOTR in test [8] and in test [11] was 100 throughout. The MATIN in [9] came out at 100. This compound showed a PHBPU in test [10] of 100.

Consider `Nc1nsc2c1NCN(CC1CCCCCC1)C2=O` [Example I-59, 3-amino-6-(cycloheptylmethyl)-4,5-dihydroisothiazolo[4,5-d]pyrimidin-7-one], for which the SETVI in test [1] and in test [3] was 100 throughout. In addition, in test [2], the POLCO was 100. For the same compound, the AMARE in [4] and in [5] was 100 each time. Besides, the ABUTH in test [6] is reported as 100. In addition, the ECHCG in [7] turned out to be 100. The VIOTR in test [8] and in test [11] was 100 each time. This compound also gave an MATIN in test [9] of 100. Also, in test [10], the PHBPU was found to be 100.

In turn, `O=C(Nc1nsc2c(=O)n(CC3CCCCC3)cnc12)c1ccc(Cl)cc1` [Example I-18] gave an AMARE in test [5] of 100. The same compound gave a VIOTR in test [8] of 100. For the same compound, the ALOMY in test [12] amounted to 80.

Turning to `COC(=O)CC(=O)Nc1nsc2c(=O)n(CC3CCCCC3)cnc12` [Example I-71], the SETVI in test [1] and in [3] was 100 in each case. Moreover, the POLCO in test [2] is reported as 100. The AMARE in test [4] and in [5] was 100 in each case. Further, in test [6], the ABUTH was 100. The ECHCG in test [7] was 100. Also, the VIOTR in test [8] and in test [11] was 100 each time. In test [9], this compound came in with an MATIN of 100. For the same compound, the PHBPU in test [10] turned out to be 100.

In test [1], `O=C(Nc1nsc2c(=O)n(CC3CCCCC3)cnc12)C1CC1` [Example I-07] returned an SETVI of 100. For the same compound, in test [13], the efficacy result is “at least 70%”. Also, the AMARE in test [4] and in test [5] was 100 throughout. The same compound came in with an ABUTH in [6] of 80. In addition, the VIOTR in test [8] and in [11] was 100 each time. This compound also came in with an ALOMY in test [12] of 100. Besides, in test [10], the PHBPU was determined as 100.

As for `CCC(=O)Nc1nsc2c(=O)n(Cc3ccc(F)cc3F)cnc12` [Example I-84], the SETVI in test [1] and in test [3] was 100 throughout. The compound further yielded a POLCO in test [2] of 100. For the same compound, the AMARE in test [4] and in [5] was 100 each time. Further, the ABUTH in test [6] is on record as 100. Further, the ECHCG in test [7] is on record as 100. Further, the VIOTR in test [8] and in test [11] was 100 in each case. In [9], this compound yielded an MATIN of 100. For the same compound, the PHBPU in test [10] is listed as 100.

In the case of `O=C(Nc1nsc2c(=O)n(CC3CCCCC3)cnc12)C(F)F` [Example I-44], the POLCO in test [2] stood at 100. The compound also showed an SETVI in [3] of 100. The AMARE in [4] and in [5] was 100 each time. In addition, the ABUTH in [6] is 100. Further, in test [7], the ECHCG worked out at 100. The VIOTR in [8] and in [11] was 100 each time. This compound also returned an MATIN in test [9] of 100. The efficacy result in test [14] is “at least 70%”.

For `Nc1nsc2c1NCN(CC1CCCCC1)C2=O` [Example I-61], the SETVI in test [1] and in test [3] was 100 throughout. Further, the POLCO in test [2] is on record as 100. For the same compound, the AMARE in test [4] and in [5] was 100 in each case. Besides, the ABUTH in [6] is on record as 100. The ECHCG in test [7] is on record as 100. Also, the VIOTR in test [8] and in test [11] was 100 in each case. For the same compound, in test [9], the MATIN is given as 100. Moreover, the PHBPU in [10] worked out at 90.

Source of the values: patent US20200123175A1, “NOVEL ISOTHIAZOLO-BASED BICYCLES, PROCESSES FOR THEIR PREPARATION AND THEIR USE AS HERBICIDES AND/OR PLANT GROWTH REGULATORS” (Bayer CropScience Aktiengesellschaft, priority 2017, published 2020).
